Test results published in article PMC5515969, “Effects of 31 FDA approved small-molecule kinase inhibitors on isolated rat liver mitochondria” (Archives of Toxicology, 2016).
Where two headings read alike, the source gives them in different places.

Key:
[1] = tested on: isolated rat liver mitochondria; assay: Mitochondrial oxygen consumption (glutamate/malate or succinate driven, state 4 and state 3); format: biochemical; conditions: for State 3 respiration driven by succinate at 1XCmax / State 4 respiration driven by succinate at 1XCmax / State 3 respiration driven by succinate at 2.5XCmax / State 4 respiration driven by succinate at 2.5XCmax / State 3 respiration driven by succinate at 5XCmax / State 4 respiration driven by succinate at 5XCmax / State 3 respiration driven by succinate at 10XCmax / State 4 respiration driven by succinate at 10XCmax / State 3 respiration driven by succinate at 20XCmax / State 4 respiration driven by succinate at 20XCmax / State 3 respiration driven by succinate at 30XCmax / State 4 respiration driven by succinate at 30XCmax / State 3 respiration driven by succinate at 50XCmax / State 4 respiration driven by succinate at 50XCmax / State 3 respiration driven by succinate at 100XCmax / State 4 respiration driven by succinate at 100XCmax: DMSO treated samples set as 1; as to State 3 respiration driven by succinate at 10XCmax: key: 0 indicates that the drug had no effects (negative); as to State 3 respiration driven by succinate at 1XCmax: key: 0 indicates that the drug had no effects (negative)
Method in brief: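 Rat liver mitochondria (1 mg/ml protein) exposed 5 min to kinase inhibitors in 0.1% DMSO, then O2 consumption measured by Clark-type electrode with glutamate/malate or succinate (state 4), ADP added after 3 min (state 3). Rates normalized to 0.1% DMSO controls set to 1.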

[2] = tested on: RCC I; assay: RCC I activity in submitochondrial particles; format: biochemical, rat; parameters: key to RCC I at 10XCmax / RCC I at 100XCmax / RCC I at 50XCmax / RCC I at 30XCmax / RCC I at 20XCmax: activity relative to DMSO-treated controls (control set as 1 = 100%); conditions: for RCC I at 10XCmax: DMSO treated samples set as 1
Method in brief: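 Abs 340 nm (I/V) or 600 nm (II), 1-min reads × 6 min; 550 nm (III, IV), 10-s reads × 2 min. RCC I = rotenone-free minus rotenone rate. DMSO control = 1.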

[3] = tested on: RCC III; assay: RCC III activity in submitochondrial particles; format: biochemical, rat; parameters: key to RCC III at 100XCmax: activity relative to DMSO-treated controls (control set as 1 = 100%)
Description: (§1) KIs were incubated with submitochondrial particles (1 mg/ml) for 15 min and then RCC I–V activities measured. […] The activities of DMSO-treated samples (controls) were set as 1. […] The difference between the activity from rotenone-containing buffer and rotenone-absent buffer was considered as RCC I activity. […] For measuring RCC I/V and II activity, the changes in absorbance at 340 and 600 nm, respectively, were determined every 1 min for 6 min. For measuring RCC III and RCC IV, the changes in absorbance at 550 nm were measured every 10 s for 2 min.

[4] = tested on: RCC IV; assay: RCC IV activity in submitochondrial particles; format: biochemical, rat; parameters: key to RCC IV at 50XCmax / RCC IV at 100XCmax: activity relative to DMSO-treated controls (control set as 1 = 100%); conditions: for RCC IV at 50XCmax: DMSO treated samples set as 1, in %
Description: as §1

[5] = tested on: RCC I–V; assay: Activities of RCC I–V, overall statements; format: biochemical, rat; conditions: submitochondrial particles
Description: as §1

[6] = cited from earlier work
[7] = target: T1, RCC II (Rattus norvegicus, UniProt P21913+Q641Z9+Q6PCT8+Q920L2); assay: RCC II activity in submitochondrial particles; format: biochemical; parameters: key: activity relative to DMSO-treated controls (control set as 1 = 100%); conditions: DMSO treated samples set as 1
T1 construct: Submitochondrial particles were prepared by subjecting the intact mitochondria to three successive freeze–thaw cycles; from tissue; host or cells: rat liver mitochondria, used as submitochondrial particles
Method in brief: (§2)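 Kinase inhibitors were preincubated 15 min with submitochondrial particles (1 mg/ml) before complex activities were measured. RCC I was the rotenone-sensitive portion (activity without minus with rotenone). RCC I/V was read at 340 nm and RCC II at 600 nm every 1 min for 6 min. RCC III and IV were read at 550 nm every 10 s for 2 min. Activities are normalized to DMSO controls set as 1.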

[8] = tested on: RCC V; assay: RCC V activity in submitochondrial particles; format: biochemical, rat; conditions: DMSO treated samples set as 1; as to RCC V at 5XCmax: key: 0 indicates that the drug had no effects (negative)
Method in brief: as §2

[9] = tested on: isolated rat liver mitochondria; assay: Mitochondrial inner membrane potential (MMP), Rhodamine 123; format: biochemical; conditions: difference in signal between KI and DMSO treated samples at the end of experiments
Excerpt: Fig. 3 KI effects on mitochondrial inner membrane potential (MMP). […] In a, c, data are means and standard derivations from three separate experiments. *p < 0.05 as compared to DMSO-treated samples at the end of experiments. In b, data are means of two independent experiments

[10] = tested on: isolated rat liver mitochondria; assay: Mitochondrial swelling (absorbance at 535 nm); format: biochemical; conditions: difference in signal between KI and DMSO treated samples at the end of experiments; as to Swelling 5XCmax: key: 0 indicates that the drug had no effects (negative)
[11] = tested on: isolated rat liver mitochondria; assay: Mitochondrial toxicity, any endpoint, intact mitochondria and submitochondrial particles; format: biochemical
Description: Rats were anesthetized by an intraperitoneal injection of Nembutal and the liver perfused with PBS to remove the blood. The liver was then cut into small pieces and homogenized using a Dounce type homogenizer in the ice-cold isolation buffer (IB) containing 200 mM sucrose, 10 mM Tris-MOPS, 1 mM EGTA (pH 7.4). The sample was then centrifuged at 600g for 10 min. The supernatant was further centrifuged at 7500g for 10 min, and the pellets was washed once with the IB and centrifuged again at 7500g for 10 min to collect mitochondria. […] Before drug treatment, the protein concentration was adjusted to 1 mg/ml using appropriate buffer. […] Briefly, mitochondrial and cytosolic fractions from four different preparations using four rats were diluted using the Laemmli protein loading buffer and subject to SDS-PAGE with 4–20% gradient gels. The proteins were blotted to PVDF membranes and detected using antibodies against GAPDH, ATP5A, UQCRC2, SDHB, and NDUFB8.
The aliquoted stock solutions were kept for less than one month and each tube was used only once. The KIs were added to the mitochondria at 1:1000 dilutions. […] The Cmax data were from clinical trials which used FDA recommend dosages, route of administration, and duration. […] The final concentration of DMSO for drug treatment was always 0.1%, and control treatments were 0.1% DMSO.

[12] = tested on: isolated rat liver mitochondria; conditions: positive control alamethicin treated samples
[13] = in vivo; cited from earlier work
[14] = ref product labeling, cited from earlier work
[15] = tested on: isolated rat liver mitochondria; assay: Mitochondrial ROS production (CM-H2DCFDA); conditions: DMSO treated samples set as 1
[16] = 1-fold Cmax, 15 min, DMSO-treated = 100

T1 sequence (Q920L2 35-656): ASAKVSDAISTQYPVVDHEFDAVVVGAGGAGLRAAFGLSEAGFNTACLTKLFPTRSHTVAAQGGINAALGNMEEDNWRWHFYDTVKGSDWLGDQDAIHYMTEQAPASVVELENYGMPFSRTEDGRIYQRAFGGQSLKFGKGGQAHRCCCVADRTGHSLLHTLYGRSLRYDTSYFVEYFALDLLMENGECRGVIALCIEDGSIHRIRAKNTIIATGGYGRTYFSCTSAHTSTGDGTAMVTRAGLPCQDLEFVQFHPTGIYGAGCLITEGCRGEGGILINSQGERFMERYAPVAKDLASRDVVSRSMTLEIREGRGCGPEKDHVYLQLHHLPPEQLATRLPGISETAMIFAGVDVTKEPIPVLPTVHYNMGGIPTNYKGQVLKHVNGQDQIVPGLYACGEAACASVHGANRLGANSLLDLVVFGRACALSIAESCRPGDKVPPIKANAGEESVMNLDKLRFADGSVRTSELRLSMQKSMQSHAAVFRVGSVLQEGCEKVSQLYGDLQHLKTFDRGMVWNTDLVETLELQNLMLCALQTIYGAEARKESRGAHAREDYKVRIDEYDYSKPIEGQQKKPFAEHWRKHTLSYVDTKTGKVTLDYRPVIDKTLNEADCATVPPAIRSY
T1 sequence (P21913 31-282): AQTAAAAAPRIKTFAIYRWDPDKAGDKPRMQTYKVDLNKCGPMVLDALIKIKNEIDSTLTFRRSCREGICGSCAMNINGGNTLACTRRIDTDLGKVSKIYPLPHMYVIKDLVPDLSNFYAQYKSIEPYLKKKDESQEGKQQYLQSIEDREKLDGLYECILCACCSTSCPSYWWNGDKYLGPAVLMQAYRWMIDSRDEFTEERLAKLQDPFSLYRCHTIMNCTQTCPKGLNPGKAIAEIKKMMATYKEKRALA
T1 sequence (Q641Z9 1-169): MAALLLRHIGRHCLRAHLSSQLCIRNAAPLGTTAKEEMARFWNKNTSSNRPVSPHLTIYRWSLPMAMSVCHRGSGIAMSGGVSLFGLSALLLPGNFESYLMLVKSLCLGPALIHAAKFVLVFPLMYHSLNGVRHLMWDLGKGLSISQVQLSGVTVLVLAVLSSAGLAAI
T1 sequence (Q6PCT8 57-159): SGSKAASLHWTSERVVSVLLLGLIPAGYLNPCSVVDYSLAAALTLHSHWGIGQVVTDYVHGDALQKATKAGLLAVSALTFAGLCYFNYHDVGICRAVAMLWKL

Cc1ccc(Nc2nccc(N(C)c3ccc4c(C)n(C)nc4c3)n2)cc1S(N)(=O)=O [Pazopanib]
inhibitor of RCC I but not other RCCs: RCCs inhibited ([5]; up to 100-fold Cmax or highest testable concentration)
equal to Cmax: lowest concentration inhibiting RCCs [5]
133 µM: Cmax ([6]; human therapeutic Cmax at FDA recommended dosages, ref product labeling and drug approval packages at the official FDA website) | Cmax ([6]; human therapeutic Cmax at FDA recommended dosages, ref product labeling and drug approval packages at the official FDA website, listed as pazopanib)
96.90 ± 11.69 % of control: RCC activity III [3, 16]
102.68 ± 0.57 % of control: RCC activity IV [4, 16]
over 50%: inhibition of state 3 mitochondrial respiration driven by glutamate/malate ([1]; onefold Cmax)
83.77 ± 2.98 % of control: RCC activity I [2, 16]

Cc1ccc(C(=O)Nc2ccc(CN3CCN(C)CC3)c(C(F)(F)F)c2)cc1C#Cc1cnc2cccnn12 [Ponatinib]
0.073 µg/mL: Cmax (ng or µg/ml) ([6]; human therapeutic maximal blood concentration, ref product labeling)
0.14 µM: Cmax ([6]; read-out: Cmax at µM, human therapeutic maximal blood concentration, ref product labeling)
BBW: Heart Failure: Labeling for cardiotoxicity ([14]; BBW: black box warning, W&P: Warnings and Precautions)
0: State 3 respiration driven by succinate at 1XCmax [1] | State 4 respiration driven by succinate at 1XCmax [1] | State 3 respiration driven by succinate at 2.5XCmax [1] | State 4 respiration driven by succinate at 2.5XCmax [1] | State 3 respiration driven by succinate at 5XCmax [1] | State 4 respiration driven by succinate at 5XCmax [1] | State 3 respiration driven by succinate at 10XCmax [1] | State 4 respiration driven by succinate at 10XCmax [1] | State 3 respiration driven by succinate at 20XCmax [1] | State 4 respiration driven by succinate at 20XCmax [1] | State 3 respiration driven by succinate at 30XCmax [1] | State 4 respiration driven by succinate at 30XCmax [1] | State 3 respiration driven by succinate at 50XCmax [1] | State 4 respiration driven by succinate at 50XCmax [1] | State 3 respiration driven by succinate at 100XCmax [1] | State 4 respiration driven by succinate at 100XCmax [1] | RCC I at 10XCmax [2] | RCC II at 1.0XCmax [7] | RCC II at 2.5XCmax [7] | RCC II at 5XCmax [7] | RCC II at 10XCmax [7] | RCC II at 20XCmax [7] | RCC II at 30XCmax [7] | RCC II at 50XCmax [7] | RCC II at 100XCmax [7] | RCC III at 100XCmax [3] | RCC IV at 50XCmax [4] | RCC V at 5XCmax [8] | RCC V at 50XCmax [8] | MMP measured by Rhodamine 123 at 1XCmax [9] | MMP measured by Rhodamine 123 at 2.5XCmax [9] | MMP measured by Rhodamine 123 at 5XCmax [9] | MMP measured by Rhodamine 123 at 10XCmax [9] | MMP measured by Rhodamine 123 at 20XCmax [9] | MMP measured by Rhodamine 123 at 30XCmax [9] | MMP measured by Rhodamine 123 at 50XCmax [9] | MMP measured by Rhodamine 123 at 100XCmax [9] | Swelling 1XCmax [10] | Swelling 2.5XCmax [10] | Swelling 5XCmax [10] | Swelling 10XCmax [10] | Swelling 20XCmax [10] | Swelling 30XCmax [10] | Swelling 50XCmax [10] | Swelling 100XCmax [10] | Cytochrome c release 1XCmax [12] | Cytochrome c release 2.5XCmax [12] | Cytochrome c release 5XCmax [12] | Cytochrome c release 10XCmax [12] | Cytochrome c release 20XCmax [12] | Cytochrome c release 30XCmax [12] | Cytochrome c release 50XCmax [12] | Cytochrome c release 100XCmax [12] | ROS measured by CM-H2DCFDA at 1XCmax [15] | ROS measured by CM-H2DCFDA at 2.5XCmax [15] | ROS measured by CM-H2DCFDA at 5XCmax [15] | ROS measured by CM-H2DCFDA at 10XCmax [15] | ROS measured by CM-H2DCFDA at 20XCmax [15] | ROS measured by CM-H2DCFDA at 30XCmax [15] | ROS measured by CM-H2DCFDA at 50XCmax [15] | ROS measured by CM-H2DCFDA at 100XCmax [15]
BBW: fatal DILI: Labeling for DILI [13] | labeling for DILI [13]
1: DILI potential (based on labeling) [13] | Potential for cardiotoxicity (based on labeling) [14]
no effects: effects on intact mitochondria or submitochondrial particles ([11]; highest concentrations tested)

C=CC(=O)N1CCC[C@@H](n2nc(-c3ccc(Oc4ccccc4)cc3)c3c(N)ncnc32)C1 [Ibrutinib]
50 fold Cmax: lowest concentration causing significant mitochondrial toxicity ([11]; any endpoint)
0: State 3 respiration driven by succinate at 1XCmax [1] | State 4 respiration driven by succinate at 1XCmax [1] | State 3 respiration driven by succinate at 2.5XCmax [1] | State 4 respiration driven by succinate at 2.5XCmax [1] | State 3 respiration driven by succinate at 5XCmax [1] | State 4 respiration driven by succinate at 5XCmax [1] | State 3 respiration driven by succinate at 10XCmax [1] | State 4 respiration driven by succinate at 10XCmax [1] | State 3 respiration driven by succinate at 20XCmax [1] | State 4 respiration driven by succinate at 20XCmax [1] | State 3 respiration driven by succinate at 30XCmax [1] | State 4 respiration driven by succinate at 30XCmax [1] | State 3 respiration driven by succinate at 50XCmax [1] | State 4 respiration driven by succinate at 50XCmax [1] | State 3 respiration driven by succinate at 100XCmax [1] | State 4 respiration driven by succinate at 100XCmax [1] | RCC I at 10XCmax [2] | RCC II at 1.0XCmax [7] | RCC II at 2.5XCmax [7] | RCC II at 5XCmax [7] | RCC II at 10XCmax [7] | RCC II at 20XCmax [7] | RCC II at 30XCmax [7] | RCC II at 50XCmax [7] | RCC II at 100XCmax [7] | RCC III at 100XCmax [3] | RCC IV at 50XCmax [4] | RCC V at 5XCmax [8] | RCC V at 50XCmax [8] | MMP measured by Rhodamine 123 at 1XCmax [9] | MMP measured by Rhodamine 123 at 2.5XCmax [9] | MMP measured by Rhodamine 123 at 5XCmax [9] | MMP measured by Rhodamine 123 at 10XCmax [9] | MMP measured by Rhodamine 123 at 20XCmax [9] | MMP measured by Rhodamine 123 at 30XCmax [9] | MMP measured by Rhodamine 123 at 50XCmax [9] | MMP measured by Rhodamine 123 at 100XCmax [9] | Swelling 1XCmax [10] | Swelling 2.5XCmax [10] | Swelling 5XCmax [10] | Swelling 10XCmax [10] | Swelling 20XCmax [10] | Swelling 30XCmax [10] | Swelling 50XCmax [10] | Swelling 100XCmax [10] | Cytochrome c release 1XCmax [12] | Cytochrome c release 2.5XCmax [12] | Cytochrome c release 5XCmax [12] | Cytochrome c release 10XCmax [12] | Cytochrome c release 20XCmax [12] | Cytochrome c release 30XCmax [12] | Cytochrome c release 50XCmax [12] | Cytochrome c release 100XCmax [12] | ROS measured by CM-H2DCFDA at 1XCmax [15] | ROS measured by CM-H2DCFDA at 2.5XCmax [15] | ROS measured by CM-H2DCFDA at 5XCmax [15] | ROS measured by CM-H2DCFDA at 10XCmax [15] | ROS measured by CM-H2DCFDA at 20XCmax [15] | ROS measured by CM-H2DCFDA at 30XCmax [15] | ROS measured by CM-H2DCFDA at 50XCmax [15] | ROS measured by CM-H2DCFDA at 100XCmax [15]
